Measurements from US20070213291A1, “Therapeutically useful synthetic oligonucleotides” (priority 1999, published 2007).

Assays:
Assay type in all cases: cell-based
[1] = test system: Jurkat human leukemia T cells; experiment: Inhibition of Jurkat human leukemia T cell proliferation (MTT reduction); settings: for % INHIBITION of Jurkat human leukemia T cell proliferation: 100 μg/ml sequence, 48 h, 2.5×10^5 cells/ml
Description: (§1) Cells were seeded in 6 (1 ml/well), 24 (0.5 ml/well) or 96 (0.1 ml/well) well flat-bottom microplates and were maintained at 37° C. in a 5% CO2 atmosphere. Unless stated otherwise, 2.5×10^5 cells/ml were incubated with 0 μg/ml (control) and 100 μg/ml (treated) of 2 to 45 base sequences containing A, C, G and T for 48 h.
MTT was measured at a wavelength of 570 nm using a multiplate spectrophotometer reader (ELX800, Bio-TEK Instruments Inc., Winooski, Vt.).
Jurkat human leukemia T cells are an atypical multi-drug resistant human suspension tumor cell model.

[2] = test system: human peripheral blood mononuclear cells; experiment: Cytokine production by human PBMC (ELISA); settings: PBMC of 7 healthy humans, 100 μg/ml, 48 h
Description: (§2) Unless stated otherwise, 1×10^6 cells were incubated with 100 μg/ml of each of the sequences tested for 48 h at 37° C. in 5% CO2. Production of cytokines IL-6, IL-10, IL-12, IL-1beta and TNF-alpha was determined in pg/ml in 100 μl of culture supernatant using the appropriate commercial ELISA (BioSource, Camarillo Calif.). The IL-12 ELISA measures both IL-12 p70 complex and free p40 subunit. Results are expressed as the “fold” (×) increase in cytokine production by treated cells compared to control cells.
Peripheral blood mononuclear cells (hereinafter, “PBMCs”) were isolated from 7 healthy humans by Ficoll-Hypaque (Amersham Pharmacia Biotech, Baie d'Urfée, Québec, Canada) by density gradient centrifugation of whole blood. PBMCs were incubated with 6 base GT, AGT, CGT, AG, CG and GG sequences and production of the cytokines IL-1beta, IL-6, IL-10 and IL-12 were determined.

[3] = test system: THP-1 human acute monocytic leukemia cells; experiment: Cytokine production by THP-1 cells (ELISA); settings: THP-1, 1×10^6 cells, 100 μg/ml, 48 h; for ↑ IL-12 (fold increase treated vs control cells): p70 complex and free p40
Description: as §2
THP-1 human acute monocytic leukemia cells were incubated with 2, 3, 6, 9, 12, 14, 15 and 18 base GT sequences and production of the cyotkine IL-6 was determined (Table 35).
THP-1 human acute monocytic leukemia cells were incubated with 6 base GT, AG, CG, GG, AGT and CGT sequences and production of the cytokines IL-12 and IL-6 was determined (Table 36).
THP-1 human acute monocytic leukemia cells were incubated with 6 base GT sequences, having either an oxygen (phosphodiester) or a sulfur (phosphorothioate) as the nonbridging atom on the phosphate groups and production of the cytokine IL-12 was determined (Table 39).
THP-1 human acute monocytic leukemia cells were incubated with 6 base GT SEQ ID NO:25, having either an oxygen (phosphodiester) or a sulfur (phosphorothioate) as the nonbridging atom on the phosphate groups and production of the cytokine IL-12 was determined (Table 40).

[4] = test system: rhesus monkey PBMCs; experiment: Cytokine production by rhesus monkey PBMC (ELISA); settings: PBMC of 4 healthy rhesus monkeys, 100 μg/ml, 48 h
Description: as §2
PBMCs were isolated from 4 healthy rhesus monkeys as in Example 35. PBMCs were incubated with 6 base GT, AGT, CGT, AG, CG ands GG sequences and production of the cytokines IL-6, IL-12 and TNF-alpha was determined (Table 42).

[5] = test system: Jurkat human leukemia T cells; experiment: Cell cycle stage in Jurkat cells (propidium iodide flow cytometry); settings: Jurkat, 24 h, 100 μg/ml
Description: Cell cycle stage was determined using a […]™ PLUS DNA commercial kit (Becton Dickinson). Briefly, nuclei from cells were obtained by dissolving the cell membrane in a nonionic detergent, eliminating the cell cytoskeleton and nuclear proteins with trypsin, digesting the cellular RNA with RNase and stabilizing the nuclear chromatin with spermine. Propidium iodide was added to the cell nuclei and their fluorescence was analyzed in a flow cytometer equipped with electronic doublet discrimination capability (FACSCalibur, Becton Dickinson, San Jose, Calif.). Accumulation of cells in G0/G1, early S (SE), mid S (SM), late S (SL) or G2/M phases of the cell cycle was analyzed using MODFIT LT software (Verity Software House Inc., Topsham, Mass.).
Exponentially growing Jurkat human leukemia T cells (Table 28) and MCF-7 human breast cancer cells (5×10^5 cells/ml) (Table 29) were incubated for 24 h with 2, 6, 15, 18, 27 and 45 base sequences containing A, C, G and T. The cells were collected and centrifuged and cell cycle stage was determined.
Jurkat human cell leukemia T cells (1×10^6 cells/ml) were incubated for 24 h with 6 base GT SEQ ID NO:25, conplementary 6 base AC SEQ ID NO:79 and 6 base GT SEQ ID NO:25+6 base AC SEQ ID NO:79. GT SEQ ID NO:25 and AC SEQ ID NO:79 were hybridized by mixing the oligonucleotides (1:1) and heating for 10 minutes at 65° C. As controls, GT SEQ ID NO:25 and AC SEQ ID NO:79 were heated for 10 minutes at 65° C. (Table 30).

[6] = test system: chimpanzee PBMCs; experiment: Cytokine production by chimpanzee PBMC (ELISA); settings: PBMC of 4 healthy chimpanzees, 100 μg/ml, 48 h
Description: as §2
PBMCs were isolated from 4 healthy chimpanzees as in Example 35. Chimpanzee PBMCs were incubated with 6 base GT, AGT, CGT, AG, CG and GG sequences and production of the cytokines IL-10, IL-12 and TNF-alpha was determined (Table 41).

[7] = test system: MCF-7 human breast cancer cells; experiment: Inhibition of MCF-7 cell proliferation (MTT); settings: 100 μg/ml, 48 h, 5×10^5 cells/ml
Description: as §1
Cell proliferation was measured using dimethylthiazol-diphenyl-tetrazolium (MTT) reduction (Mosman et al. J. Immunol. Methods 65:55, 1983). MTT was measured at a wavelength of 570 nm using a multiplate spectrophotometer reader (ELX800, Bio-TEK Instruments Inc., Winooski, Vt.).
MCF-7 human breast cancer cells are a caspase 3 negative, estrogen-dependent human solid tumor model. MCF-7 cells (5×10^5 cells/ml) were incubated with 3 and 6 base GT sequences (Table 7).

GGAAGG (unmodified DNA) [SEQ ID NO:42] was tested, and the “% INHIBITION of Jurkat human leukemia T cell proliferation” value [1] was 22%, the “IL-1 beta fold increase: mean +/− SD” value [2] was 3.5 +/− 3.9 fold increase and the “IL-6 fold increase: mean +/− SD” value [2] was 11.8 +/− 5.8 fold increase. For the same substance, the “IL-10 fold increase: mean +/− SD” value [2] was 1.1 +/− 0.2 fold increase, the “IL-12 fold increase: mean +/− SD” value [2] was 3.0 +/− 2.7 fold increase and the “↑ IL-6 (fold increase treated vs control cells)” value [3] was 29.2x. The “↑ IL-12 (fold increase treated vs control cells)” value [3] was 4.1x, the “IL-10 fold increase: mean +/− SD” value [4] was 1.2 +/− 0.2 fold increase and the “IL-12 fold increase: mean +/− SD” value [4] was 11.9 +/− 5.4 fold increase. For the same substance, the “TNF-alpha fold increase: mean +/− SD” value [4] was 16.5 +/− 4.5 fold increase, the “% of cells in phase: G0/G1” value [5] was 48.0% and the “% of cells in phase: G2/M” value [5] was 34.1%. For the same substance, the “% of cells in phase: SE” value [5] was 19.8%, the “% of cells in phase: SL” value [5] was 5.8% and the “% of cells in phase: SM” value [5] was 8.5%. The “Arrest (cell cycle)” value [5] was “End”, the “IL-10 fold increase: mean +/− SD” value [6] was 9.9 +/− 8.9 fold increase and the “IL-12 fold increase: mean +/− SD” value [6] was 15.6 +/− 10.6 fold increase. For the same substance, the “TNF-alpha fold increase: mean +/− SD” value [6] was 14.4 +/− 7.1 fold increase.

GGCCGG [SEQ ID NO:43] was tested, and the “% INHIBITION of Jurkat human leukemia T cell proliferation” value [1] was 29%, the “IL-1 beta fold increase: mean +/− SD” value [2] was 1.5 +/− 0.9 fold increase and the “IL-6 fold increase: mean +/− SD” value [2] was 14.9 +/− 10.2 fold increase. For the same substance, the “IL-10 fold increase: mean +/− SD” value [2] was 1.2 +/− 0.3 fold increase, the “IL-12 fold increase: mean +/− SD” value [2] was 2.5 +/− 2.0 fold increase and the “↑ IL-6 (fold increase treated vs control cells)” value [3] was 17.1x. For the same substance, the “↑ IL-12 (fold increase treated vs control cells)” value [3] was 3.1x, the “IL-10 fold increase: mean +/− SD” value [4] was 1.0 +/− 0.2 fold increase and the “IL-12 fold increase: mean +/− SD” value [4] was 11.7 +/− 4.8 fold increase. The “TNF-alpha fold increase: mean +/− SD” value [4] was 16.9 +/− 3.5 fold increase, the “% of cells in phase: G0/G1” value [5] was 26.5% and the “% of cells in phase: G2/M” value [5] was 18.7%. The “% of cells in phase: SE” value [5] was 21.3%, the “% of cells in phase: SL” value [5] was 10.7% and the “% of cells in phase: SM” value [5] was 22.8%. For the same substance, the “Arrest (cell cycle)” value [5] was “End SM”, the “IL-10 fold increase: mean +/− SD” value [6] was 13.6 +/− 9.0 fold increase and the “IL-12 fold increase: mean +/− SD” value [6] was 15.1 +/− 10.2 fold increase. For the same substance, the “TNF-alpha fold increase: mean +/− SD” value [6] was 14.0 +/− 6.6 fold increase.

With GoGoGoTsGoGo the “% INHIBITION of Jurkat human leukemia T cell proliferation” value [1] was 12%, the “↑ IL-12 (fold increase treated vs control cells)” value [3] was 0.2x and the “% INHIBITION of MCF-7 human breast cancer cell proliferation” value [7] was 0%.

In the case of GoGoGsToGoGo, the “% INHIBITION of Jurkat human leukemia T cell proliferation” value [1] is reported as 17%, the “↑ IL-12 (fold increase treated vs control cells)” value [3] is reported as 0.1 x and the “% INHIBITION of MCF-7 human breast cancer cell proliferation” value [7] is reported as 12%.

For GoGoGsTsGoGo, the “% INHIBITION of Jurkat human leukemia T cell proliferation” value [1] was 13%, the “↑ IL-12 (fold increase treated vs control cells)” value [3] was 0.5x and the “% INHIBITION of MCF-7 human breast cancer cell proliferation” value [7] was 43%.

For GoGsGoToGsGo, the “% INHIBITION of Jurkat human leukemia T cell proliferation” value [1] was 11%, the “↑ IL-12 (fold increase treated vs control cells)” value [3] was −0.1x and the “% INHIBITION of MCF-7 human breast cancer cell proliferation” value [7] was 13%.

In the case of GsGoGoToGoGs, the “% INHIBITION of Jurkat human leukemia T cell proliferation” value [1] is reported as 16%, the “↑ IL-12 (fold increase treated vs control cells)” value [3] is reported as −0.1x and the “% INHIBITION of MCF-7 human breast cancer cell proliferation” value [7] is reported as 12%.

For GsGsGoToGsGs, the “% INHIBITION of Jurkat human leukemia T cell proliferation” value [1] was −13%, the “↑ IL-12 (fold increase treated vs control cells)” value [3] was 0 x and the “% INHIBITION of MCF-7 human breast cancer cell proliferation” value [7] was −3%.

With TGGTTG [SEQ ID NO:29] the “% INHIBITION of Jurkat proliferation at suboptimal concentration” value ([1]; 5.0 μg/ml of each 6 base sequence, alone or two together) was −1%, the “% INHIBITION of Jurkat human leukemia T cell proliferation” value [1] was 42% and the “IL-1 beta fold increase: mean +/− SD” value [2] was 1.7 +/− 1.0 fold increase. The “IL-6 fold increase: mean +/− SD” value [2] was 9.3 +/− 12.1 fold increase, the “IL-10 fold increase: mean +/− SD” value [2] was 1.0 +/− 0.1 fold increase and the “IL-12 fold increase: mean +/− SD” value [2] was 3.3 +/− 4.2 fold increase. The “↑ IL-6 (fold increase treated vs control cells)” value [3] was 10.5x, the “↑ IL-12 (fold increase treated vs control cells)” value [3] was 4.1x and the “IL-10 fold increase: mean +/− SD” value [4] was 1.1 +/− 0.2 fold increase. For the same substance, the “IL-12 fold increase: mean +/− SD” value [4] was 11.1 +/− 4.2 fold increase, the “TNF-alpha fold increase: mean +/− SD” value [4] was 16.5 +/− 2.7 fold increase and the “IL-10 fold increase: mean +/− SD” value [6] was 3.1 +/− 2.0 fold increase. The “IL-12 fold increase: mean +/− SD” value [6] was 13.6 +/− 8.8 fold increase and the “TNF-alpha fold increase: mean +/− SD” value [6] was 12.4 +/− 7.3 fold increase.
